The source of these data is patent publication US9241489B2, “Plant growth regulating compounds” (Syngenta Participations AG, priority 2011, dated 2016).

Each structure is given as a SMILES string.

The term melting point denotes the temperature, or range, at which the solid turns liquid. As for `N#Cc1cnc(NC(=O)CCC(=O)O)cn1` [Compound A1, 4-[(5-cyanopyrazin-2-yl)amino]-4-oxo-butanoic acid], the melting point lay within 201 to 202 °C.
